Data reported in the supplement of paper PMC10307832.

Columns and labels:
Experiment in all cases: relative viability (nuclei count vs DMSO), 5 days (fraction); higher = more cells survive
[1] = compound: C1=CC=C(C(=C1)C2=CC=C(C=C2)C3=CSC4=C3C(=C(C(=O)N4)C#N)O)O + CC1(C)CCC(c2ccc(Cl)cc2)=C(CN2CCN(c3ccc(C(=O)NS(=O)(=O)c4ccc(N[C@H](CCN5CCOCC5)CSc5ccccc5)c(S(=O)(=O)C(F)(F)F)c4)cc3)CC2)C1 [Navitoclax] (partner 0.5 µM)
How it was run: (§1)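 One day after seeding in 1536-well plates, lung cancer cell lines were dosed by pin tool. Dosing was either single-drug or a fixed anchor-drug dose plus five library-drug doses (not always all listed) in √10 steps. After 5 days, nuclei were stained in one fix-and-stain step and counted on 4× images, and relative viability is the nuclei count of treated wells over that of vehicle wells, given as the median of duplicate plates.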

[2] = compound: C1=CC=C(C(=C1)C2=CC=C(C=C2)C3=CSC4=C3C(=C(C(=O)N4)C#N)O)O + N=C(N)NC(=N)NCCc1ccccc1 [Phenformin] (partner 250 µM)
How it was run: as §1

TGX 221 + Trametinib = compound: CC1=CN2C(=O)C=C(N=C2C(=C1)C(C)NC3=CC=CC=C3)N4CCOCC4 [TGX 221] + CC(=O)Nc1cccc(-n2c(=O)n(C3CC3)c(=O)c3c(Nc4ccc(I)cc4F)n(C)c(=O)c(C)c32)c1 [Trametinib] (partner 0.02 µM)
How it was run: as §1

TGX 221 + Luminespib = compound: CC1=CN2C(=O)C=C(N=C2C(=C1)C(C)NC3=CC=CC=C3)N4CCOCC4 [TGX 221] + CCNC(=O)c1noc(-c2cc(C(C)C)c(O)cc2O)c1-c1ccc(CN2CCOCC2)cc1 [Luminespib] (partner 0.01 µM)
How it was run: as §1

Cell Line | relative viability ([1]; first compound 0.08 µM) | relative viability ([1]; first compound 0.253 µM) | relative viability ([1]; first compound 0.8 µM) | relative viability ([1]; first compound 2.53 µM) | relative viability ([1]; first compound 8 µM) | relative viability ([2]; first compound 0.08 µM) | relative viability ([2]; first compound 0.253 µM) | relative viability ([2]; first compound 0.8 µM) | relative viability ([2]; first compound 2.53 µM) | relative viability ([2]; first compound 8 µM) | relative viability (TGX 221 + Trametinib; first compound 0.08 µM) | relative viability (TGX 221 + Trametinib; first compound 0.253 µM) | relative viability (TGX 221 + Trametinib; first compound 0.8 µM) | relative viability (TGX 221 + Trametinib; first compound 2.53 µM) | relative viability (TGX 221 + Trametinib; first compound 8 µM) | relative viability (TGX 221 + Luminespib; first compound 0.08 µM) | relative viability (TGX 221 + Luminespib; first compound 0.253 µM) | relative viability (TGX 221 + Luminespib; first compound 0.8 µM) | relative viability (TGX 221 + Luminespib; first compound 2.53 µM) | relative viability (TGX 221 + Luminespib; first compound 8 µM)
NCI-H23 | 0.883 | 0.746 | 1 | 0.754 | 0.468 | 0.782 | 0.85 | 0.872 | 0.754 | 0.583 | 0.279 | 0.329 | 0.338 | 0.403 | 0.328 | 0.196 | 0.225 | 0.217 | 0.21 | 0.208
NCI-H322M | 1.35 | 1.24 | 1.03 | 1.32 | 1.09 | 0.69 | 0.751 | 0.776 | 0.871 | 0.865 | 0.47 | 0.488 | 0.508 | 0.504 | 0.5 | 0.735 | 0.802 | 0.776 | 0.812 | 0.644
NCI-H441 | – | 0.644 | – | 0.837 | 0.604 | 0.706 | 1.01 | 1.03 | 0.927 | 0.633 | 0.416 | 0.473 | 0.45 | 0.371 | 0.354 | 0.554 | 0.307 | 0.364 | 0.312 | 0.278
NCI-H460 | – | 0.414 | 1.43 | 1.31 | 0.271 | 0.165 | 0.557 | 0.427 | 0.561 | 0.107 | 0.104 | 0.121 | 0.202 | 0.171 | 0.0976 | 0.0366 | 0.029 | 0.0351 | 0.04 | 0.028
NCI-H520 | 1.08 | 1.15 | 1.2 | 1.11 | 0.891 | 0.254 | 0.535 | 0.757 | 0.542 | 0.467 | 0.521 | 0.591 | 0.744 | 0.597 | 0.505 | 0.23 | 0.196 | 0.188 | 0.205 | 0.211
NCI-H596 | 0.791 | 1.32 | 0.955 | 0.951 | 0.787 | 0.629 | 0.695 | 0.741 | 0.724 | 0.571 | 0.654 | 0.807 | 0.82 | 0.908 | 0.774 | 0.992 | 1.02 | 1.04 | 0.881 | 0.935
NCI-H647 | 0.877 | 1.16 | 1.24 | 1.21 | 0.741 | 0.285 | 0.615 | 0.586 | 0.555 | 0.349 | 0.436 | 0.375 | 0.355 | 0.247 | 0.297 | 0.186 | 0.164 | 0.263 | 0.17 | 0.118
NCI-H727 | 0.426 | 0.478 | 0.48 | 0.409 | 0.479 | 0.484 | 0.668 | 0.416 | 0.491 | 0.514 | 0.476 | 0.362 | 0.409 | 0.392 | 0.366 | 0.345 | 0.315 | 0.303 | 0.257 | 0.363
NCI-H838 | 1.16 | 1.07 | 1.22 | 1.12 | 0.979 | 0.316 | 0.641 | 0.538 | 0.54 | 0.543 | 0.49 | 0.456 | 0.45 | 0.402 | 0.355 | 0.219 | 0.335 | 0.296 | 0.344 | 0.266
NCI-H1355 | 1.1 | 1.02 | 0.935 | 0.957 | 0.777 | 0.396 | 0.487 | 0.445 | 0.422 | 0.396 | 0.448 | 0.396 | 0.406 | 0.359 | 0.302 | 0.713 | 0.59 | 0.674 | 0.588 | 0.621
NCI-H1395 | – | 1.21 | 1.15 | 1.05 | 1.12 | 0.41 | 0.435 | 0.396 | 0.437 | 0.399 | 0.93 | 0.935 | 0.831 | 0.767 | 0.761 | 0.684 | 0.721 | 0.603 | 0.514 | 0.453
NCI-H1437 | 1.06 | 1.16 | 1.18 | 1.13 | 0.881 | 0.297 | 0.452 | 0.237 | 0.303 | 0.26 | 0.462 | 0.448 | 0.437 | 0.38 | 0.415 | 1.09 | 1.11 | 1.16 | 1.1 | 0.929
NCI-H1650 | – | 1.25 | 1.23 | 1.15 | 0.865 | 0.406 | 0.358 | 0.437 | 0.439 | 0.362 | 0.456 | 0.655 | 0.669 | 0.596 | 0.416 | 0.197 | 0.191 | 0.201 | 0.169 | 0.185
NCI-H1651 | 1.07 | 0.941 | 1.05 | 1.1 | 0.642 | 0.272 | 0.336 | 0.398 | 0.365 | 0.278 | 0.809 | 0.84 | 0.756 | 0.764 | 0.73 | 0.828 | 0.653 | 0.741 | 0.592 | 0.568
